Broadly, the logD is lipophilicity at a set pH, counting ionised and neutral species. As usually defined, the solubility is the dissolved amount per volume that the medium holds. A low value points to a poorly soluble substance.

Converted amounts (≈) assume the structure as drawn. “And” between values parts separate entries of the source, which are not always exact repeats. Identical values can stand only once. A value given as a limit tells only on which side of the number the result lay.

These results are taken from PMC10860144, “Exploring the Dispersion and Electrostatic Components in Arene–Arene Interactions between Ligands and G4 DNA to Develop G4-Ligands” (Journal of Medicinal Chemistry, 2024).

Data set [1] is described as follows: Intrinsic clearance in human microsomes. It counts as in vitro ADME. Conditions: read-out: Human mics: intrinsic clearance in human microsomes. The protocol:
(§1) All compounds (2–11, 25–29) were screened for their logD and solubility at pH 7.4 and for their intrinsic clearance in rat hepatocytes and human microsomes (Table S2). […] Replacing the basic amine side chain to a methyl substituent in the quinazolines (25–29) still retained good solubility (134 to over 1000 μM) but increased clearance in both rat hepatocytes and human microsomes. The logD was low for compounds with a basic amine side chain (2–11) and increased slightly when the amine was replaced with a methyl (25–29). As expected, additional substituents also affected the logD with the chloro-substituents increasing logD the most.
(§2) a Intrinsic clearance in rat hepatocytes ((μL/min)/10^6 cells).b Intrinsic clearance in human microsomes (μL/min/mg). […]

The next data set has as its target Pu24T c-MYC G4 structure. As to the kind of experiment: Kd for binding to the Pu24T c-MYC G4 structure (supplementary CSV). Set-up: species or system human. As to the method: (§3) 5′-Cy5 labeled G4 DNAs for this study were purchased from Eurofins Genomics. Stock solutions were prepared in water at 100 μM concentration. The sequences used are listed in Supporting Information Table S1. The G4 DNA sequences were folded in KCl buffer (10 mM phosphate, 100 mM KCl, pH 7.4) by heating at 95 °C for 5 min and then cooling to room temperature. All the experiments were performed in 10 mM phosphate pH 7.4, 100 mM KCl, and 0.05% Tween20. The labeled DNA concentration is held constant at 25 nM, and ligand concentration is varied depending on ligands Kd (16 1:3 dilutions). The samples were loaded into standard MST graded glass capillaries and initial fluorescence intensity of the capillary was measured using Monolith NT.115 (Nano Temper, Germany) with 20% LED power. The change in fluorescence with ligand’s concentrations were plotted in Excel and fitted through nonlinear equation to obtain the binding constants.
The Supporting Information is available free of charge at https://pubs.acs.org/doi/10.1021/acs.jmedchem.3c02127. • Experimental procedures and data; assay data, computational results, and all cell data; NMR (^1H and ^13C) spectra for all compounds (with the exception of a few intermediates); and HPLC UV traces for the final compounds (PDF) • Molecular formula strings and Kd values for binding to the Pu24T c-MYC G4 structure (CSV)

A further data set concerns the target c-MYC Pu22 G4 DNA. As to the kind of experiment: Microscale thermophoresis (MST), c-MYC Pu22 G4 DNA. It is filed as binding, human. As to conditions: Cy5-labeled c-MYC Pu22 G4 DNA 25 nM; pH 7.4, 100 mM KCl; read-out: apparent Kd (MST). As to the method:
To evaluate the apparent binding affinities (Kd) for the compound series, we next used microscale thermophoresis (MST) with fluorescently labeled c-MYC Pu22 G4 DNA (Table S1). Overall, the measured MST binding results for compounds 2–11 corresponded well with the results from the FRET assay (Figures 2B and S3).
as §3, with “constants. […]” for “constants.”
Microscale Thermophoresis (MST)
5'- Cy5 labelled G4 DNAs for this study were purchased from Eurofins Genomics. Stock solutions were prepared in water at […] concentration. The sequences used are listed in supplementary Table S1. The G4 DNA sequences were folded in KCl buffer (10 mM phosphate, 100 mM KCl, pH 7.4) by heating at 95 °C for 5 min and then cooling to room temperature. All the experiments were performed in 10 mM phosphate pH 7.4, 100 mM KCl, 0.05% Tween20. The labelled DNA concentration is held constant at 25 nM and ligand concentration is varied depending on ligands Kd (sixteen 1:3 dilutions). The samples were loaded into standard MST graded glass capillaries and initial fluorescence intensity of the capillary were measured using Monolith NT.115 (Nano Temper, Germany) with 20% LED power. The change in fluorescence with ligand's concentrations were plotted in Excel and fitted through non-linear equation to obtain the binding constants.
(1 picture or pasted object on this page, not shown here)

The next data set is described as follows: logD at pH 7.4. It is filed as physicochemical. The protocol: (§4) Physicochemical properties
(§5) The Physicochemical profiling (LogD, Solubility, Caco-2 cell permeability) was performed as previously
(§6) described.8 Cell viability was performed as described below.
(§7) Table S2. Pharmacokinetic Properties
(§8) Compound Structure logD, Solubility, Rat hepsa Human mics b

A further data set can be described thus: Solubility at pH 7.4. It counts as physicochemical. The protocol:
as §4, §5, §6, §7, §8

Data set [2] is described as follows: Intrinsic clearance in rat hepatocytes. It is filed as in vitro ADME. As to the method: as §1, §2
In data set [3] the test system is G4 structure on DNA template (PEPu24T). As to the kind of experiment: Taq polymerase stop (primer extension) assay, G4 template. It is filed as biochemical. Conditions: compound 0.24 μM; compared to DMSO control. An excerpt: To challenge all the synthesized compounds (2–11 and 25–29) in a more intricate context, we conducted a Taq polymerase stop assay to evaluate their capacity to impede DNA synthesis through G4 stabilization. In this assay, we compared the progress of the Taq DNA polymerase along two distinct DNA templates: one with a G4 structure (Figure 5) and another serving as a non-G4 control (Figure S21). If an external species (e.g., G4 ligand) binds and stabilizes the G4 structure, the polymerase will be partially halted. The extent of this DNA polymerase stalling is dependent on the ability of the compound to stabilize the G4 on the DNA template. The increased G4 stabilization can be detected as a reduction in the amount of newly synthesized DNA that has reached the end of the DNA template (full-length/end-product). Analysis of these shorter terminated DNA products will give information about the precise location of the DNA polymerase stalling with a single nucleotide resolution. If the ligand imposes little to no stabilization or binding, the G4 is readily resolved by the DNA polymerase, and no difference in the amount of DNA end-product can therefore be expected upon the addition of the compound.
Templates for the primer extension assay were created by annealing 25 nt TET labeled primer (1 μM final concentration) to either PEPu24T or a mutated sequence not forming a G4, PEPu24T mut, (1.25 μM final concentration) in 100 mM KCl by heating to 95 °C for 5 min and slowly cooling to room temperature. […] Compounds were added in the indicated concentration and incubated on ice for 10 min before starting the reaction by adding dNTPs (100 μM final concentration) to the reaction and transferring it to 37 °C. Reactions were stopped after 15 min by addition of 10 μL of formamide loading buffer (0.5% SDS, 25 mM EDTA, 95% v/v formamide and xylene-cyanol). Samples were then loaded on a 12% polyacrylamide gel containing 7 M urea and 25% formamide and imaged using an Amersham Typhoon. The images were quantified using ImageJ 1.53e software, and the percentage of full-length product compared to a sample without compound was calculated.
Templates for the primer extension assay were created by annealing 25nt TET labelled primer (1 µM final concentration) to either PEPu24T or a mutated sequence not forming a G4, PEPu24T mut, (1.25 µM final concentration) in 100 mM KCl by heating to 95 °C for 5 min and slowly cooling to room temperature. The reaction mixture (10 µl) contained 1X Taq Buffer with KCl (10 mM Tris-HCl pH 8.8, 50 mM KCl, detergent), 25 mM MgCl2, […]
[…] Compounds were added in the indicated concentration and incubated on ice for 10 min before starting the reaction by adding dNTPs (100 µM final concentration) to the reaction and transferring it to 37 °C. Reactions were stopped after 15 min by addition of 10 µl of formamide loading buffer (0,5% SDS, 25 mM EDTA, 95% v/v formamide and xylene-cyanol). Samples were then loaded on a 12% polyacrylamide gel containing 7 M urea and 25% formamide and imaged using an Amersham™ Typhoon™.
The images were quantified using ImageJ 1.53e software and the percentage of full-length product compared to a sample without compound was calculated. […]

With `Cc1cc(NCCCN(C)C)nc(Nc2nc3cc(Cl)c(Cl)cc3nc2C)n1` [Compound 11, N2-(6,7-Dichloro-3-methylquinoxalin-2-yl)-N4-(3-(dimethylamino)propyl)-6-methylpyrimidine-2,4-diamine], the microsomal CLint in data set [1] was below 3 µL/min/mg. For the same compound, the Kd on Pu24T c-MYC G4 structure was 3.9 ± 0.7 µM; on c-MYC Pu22 G4 DNA, 3.9 µM and 3.85 µM. The compound also showed a logD in “logD at pH 7.4” of 2.3. Besides, the solubility in the data set “Solubility at pH 7.4” was found to be 646 µM (≈ 272 µg/mL). In addition, in data set [2], the “Rat heps: intrinsic clearance in rat hepatocytes” value (“Rat heps: intrinsic clearance” for short) was 6 (μL/min)/106 cells.
With `Cc1cc(NCCCN(C)C)nc(Nc2nc(C)c3ccccc3n2)n1` [Compound 3, N4-(3-(Dimethylamino)propyl)-6-methyl-N2-(4-methylquinazolin-2-yl)pyrimidine-2,4-diamine], in data set [1], the microsomal CLint is below 3 µL/min/mg. The “full-length DNA product” value in data set [3] is around 45%. Moreover, the Kd at Pu24T c-MYC G4 structure is 0.15 ± 0.01 µM; on c-MYC Pu22 G4 DNA, 0.15 µM. In “logD at pH 7.4”, this compound had a logD of 0. The same compound registered a solubility in “Solubility at pH 7.4” of 858 µM (≈ 302 µg/mL). Besides, in data set [2], the “Rat heps: intrinsic clearance” value is listed as 4 (μL/min)/106 cells.
Turning to `Cc1cc(C)nc(Nc2nc(C)c3cc(Cl)ccc3n2)n1` [Compound 29, 6-Chloro-N-(4,6-dimethylpyrimidin-2-yl)-4-methylquinazolin-2-amine], the microsomal CLint in data set [1] worked out at 56 µL/min/mg. Also, the Kd at Pu24T c-MYC G4 structure and on c-MYC Pu22 G4 DNA was above 15 µM in each case. The compound also came in with a logD in “logD at pH 7.4” of 2.4. Also, the solubility in “Solubility at pH 7.4” stood at 134 µM (≈ 40.2 µg/mL). Besides, the “Rat heps: intrinsic clearance” value in data set [2] is given as 9 (μL/min)/106 cells.
With `Cc1ccc2nc(Nc3nc(C)cc(NCCCN(C)C)n3)nc(C)c2c1` [Compound 4, N4-(3-(Dimethylamino)propyl)-N2-(4,6-dimethylquinazolin-2-yl)-6-methylpyrimidine-2,4-diamine], in data set [1], the microsomal CLint is below 3 µL/min/mg. The “full-length DNA product” value in data set [3] is “about 30%”. Also, the Kd at Pu24T c-MYC G4 structure stood at 0.1 ± 0.01 µM; at c-MYC Pu22 G4 DNA, 0.1 µM. In addition, the logD in “logD at pH 7.4” is 0.4. In the data set “Solubility at pH 7.4”, this compound returned a solubility above 1000 µM. Also, in data set [2], the “Rat heps: intrinsic clearance” value was < 1 (μL/min)/106 cells.
Regarding `Cc1cc(C)nc(Nc2nc(C)c3ccccc3n2)n1` [Compound 25, N-(4,6-Dimethylpyrimidin-2-yl)-4-methylquinazolin-2-amine], the microsomal CLint in data set [1] was determined as 71 µL/min/mg. In addition, the Kd at Pu24T c-MYC G4 structure and at c-MYC Pu22 G4 DNA was above 15 µM each time. In addition, in the data set “logD at pH 7.4”, the logD was 1.8. In “Solubility at pH 7.4”, this compound yielded a solubility above 1000 µM. The “Rat heps: intrinsic clearance” value in data set [2] was 17 (μL/min)/106 cells.
For `COc1ccc2nc(Nc3nc(C)cc(C)n3)nc(C)c2c1` [Compound 28, N-(4,6-Dimethylpyrimidin-2-yl)-6-methoxy-4-methylquinazolin-2-amine], the microsomal CLint in data set [1] stood at 22 µL/min/mg. Further, the Kd was determined as 3.6 ± 0.7 µM on Pu24T c-MYC G4 structure and 3.6 µM at c-MYC Pu22 G4 DNA. In the data set “logD at pH 7.4”, the logD was 1.9. The solubility in the data set “Solubility at pH 7.4” stood at 271 µM (≈ 80 µg/mL). Also, the “Rat heps: intrinsic clearance” value in data set [2] was 34 (μL/min)/106 cells.
Regarding `Cc1ccc2nc(Nc3nc(C)cc(C)n3)nc(C)c2c1` [Compound 26, N-(4,6-Dimethylpyrimidin-2-yl)-4,6-dimethylquinazolin-2-amine], in data set [1], the microsomal CLint was 84 µL/min/mg. The Kd at Pu24T c-MYC G4 structure is 3.3 ± 0.3 µM; on c-MYC Pu22 G4 DNA, 3.3 µM. Besides, the logD in the data set “logD at pH 7.4” was found to be 2.2. This compound also yielded a solubility in the data set “Solubility at pH 7.4” of 951 µM (≈ 266 µg/mL). Also, the “Rat heps: intrinsic clearance” value in data set [2] is recorded as 20 (μL/min)/106 cells.
On to `Cc1cc(NCCCN(C)C)nc(Nc2nc3ccccc3nc2C)n1` [Compound 9, N4-(3-(Dimethylamino)propyl)-6-methyl-N2-(3-methylquinoxalin-2-yl)pyrimidine-2,4-diamine], for which the microsomal CLint in data set [1] is below 3 µL/min/mg. For the same compound, the Kd on Pu24T c-MYC G4 structure and at c-MYC Pu22 G4 DNA was above 10 µM throughout. Also, the logD in “logD at pH 7.4” was 0.5. For the same compound, in “Solubility at pH 7.4”, the solubility is 871 µM (≈ 306 µg/mL). The “Rat heps: intrinsic clearance” value in data set [2] is given as 17 (μL/min)/106 cells.
As for `Cc1cc(NCCCN(C)C)nc(Nc2nc3cc(C)c(C)cc3nc2C)n1` [Compound 10, N4-(3-(Dimethylamino)propyl)-6-methyl-N2-(3,6,7-trimethylquinoxalin-2-yl)pyrimidine-2,4-diamine], in data set [1], the microsomal CLint is below 3 µL/min/mg. Moreover, the Kd at Pu24T c-MYC G4 structure was 2.3 ± 0.5 µM; at c-MYC Pu22 G4 DNA, 2.3 µM and 2.26 µM. Moreover, the logD in “logD at pH 7.4” came out at 1.4. For the same compound, in the data set “Solubility at pH 7.4”, the concentration in solution (solubility) came to 838 µM (≈ 318 µg/mL). Besides, the “Rat heps: intrinsic clearance” value in data set [2] is recorded as 19 (μL/min)/106 cells.
